Measurements published in article PMC7704689 (Bioorganic & medicinal chemistry letters, 2020).

tested on: Raji cells, a Burkitt's lymphoma (BL) cell line; test: Viability of Raji cells; type: cell-based, human; settings: 100 nM, 72 h

| SMILES | inhibition of viability of Raji cells |
| --- | --- |
| COC(=O)[C@@]12OC[C@]34[C@H]([C@@H](O)[C@@H]1O)[C@@]1(C)CC(=O)C(OC(=O)[C@H](C)NC(=O)OC(C)(C)C)=C(C)[C@@H]1C[C@H]3OC(=O)[C@H](OC(=O)C=C(C)C)[C@@H]24 [Compound 6] | moderate inhibition |
| COC(=O)[C@@]12OC[C@]34[C@H]([C@@H](O)[C@@H]1O)[C@@]1(C)CC(=O)C(OC(=O)[C@@H]5CCCN5C(=O)OC(C)(C)C)=C(C)[C@@H]1C[C@H]3OC(=O)[C@H](OC(=O)C=C(C)C)[C@@H]24 [Compound 11] | moderate inhibition |
| COC(=O)[C@@]12OC[C@]34[C@H]([C@@H](O)[C@@H]1O)[C@@]1(C)CC(=O)C(OC(=O)CNC(=O)CN)=C(C)[C@@H]1C[C@H]3OC(=O)[C@H](OC(=O)C=C(C)C)[C@@H]24 [Compound 20] | potent activities comparable to or higher than the parent brusatol |
| COC(=O)[C@@]12OC[C@]34[C@H]([C@@H](O)[C@@H]1O)[C@@]1(C)CC(=O)C(OC(=O)C[C@H](C)NC(=O)C[C@H](C)N)=C(C)[C@@H]1C[C@H]3OC(=O)[C@H](OC(=O)C=C(C)C)[C@@H]24 [Compound 21] | potent activities comparable to or higher than the parent brusatol |
| COC(=O)[C@@]12OC[C@]34[C@H]([C@@H](O)[C@@H]1O)[C@@]1(C)CC(=O)C(OC(=O)[C@H](C)NC(=O)[C@H](C)N)=C(C)[C@@H]1C[C@H]3OC(=O)[C@H](OC(=O)C=C(C)C)[C@@H]24 [Compound 22] | not active |
| COC(=O)[C@@]12OC[C@]34[C@H]([C@@H](O)[C@@H]1O)[C@@]1(C)CC(=O)C(OC(=O)CNC(=O)CNC(=O)CN)=C(C)[C@@H]1C[C@H]3OC(=O)[C@H](OC(=O)C=C(C)C)[C@@H]24 [Compound 23] | potent activities comparable to or higher than the parent brusatol |
| COC(=O)[C@@]12OC[C@]34[C@H]([C@@H](O)[C@@H]1O)[C@@]1(C)CC(=O)C(OC(=O)C[C@H](C)NS(C)(=O)=O)=C(C)[C@@H]1C[C@H]3OC(=O)[C@H](OC(=O)C=C(C)C)[C@@H]24 [Compound 29] | lost activities |
| COC(=O)[C@@]12OC[C@]34[C@H]([C@@H](O)[C@@H]1O)[C@@]1(C)CC(=O)C(OCC(=O)NCCN)=C(C)[C@@H]1C[C@H]3OC(=O)[C@H](OC(=O)C=C(C)C)[C@@H]24 [Compound 40] | moderate activity |
| COC(=O)[C@@]12OC[C@]34[C@H]([C@@H](O)[C@@H]1O)[C@@]1(C)CC(=O)C(OC(=O)CNC(=O)OC(C)(C)C)=C(C)[C@@H]1C[C@H]3OC(=O)[C@H](OC(=O)C=C(C)C)[C@@H]24 [UPB-15] | moderate inhibition |
| COC(=O)[C@@]12OC[C@]34[C@H]([C@@H](O)[C@@H]1O)[C@@]1(C)CC(=O)C(OC(=O)C[C@H](C)N)=C(C)[C@@H]1C[C@H]3OC(=O)[C@H](OC(=O)C=C(C)C)[C@@H]24 [UPB-26, 3-(3-β-HoAla)-brusatol] | potent activities comparable to or higher than the parent brusatol |
| COC(=O)[C@@]12OC[C@]34[C@H]([C@@H](O)[C@@H]1O)[C@@]1(C)CC(=O)C(OC(=O)[C@@H]5CCCN5)=C(C)[C@@H]1C[C@H]3OC(=O)[C@H](OC(=O)C=C(C)C)[C@@H]24 [UPB-31] | potent activities comparable to or higher than the parent brusatol |

tested on: MOLT-4, SU-DHL-6, SU-DHL-10, RPMI-8226 and LCL1 cells; test: Activity on five other hematologic malignancy derived cell lines; type: cell-based, human; settings: MOLT-4, SU-DHL-6, SU-DHL-10, RPMI-8226, LCL1

| SMILES | activity on five other cell lines |
| --- | --- |
| COC(=O)[C@@]12OC[C@]34[C@H]([C@@H](O)[C@@H]1O)[C@@]1(C)CC(=O)C(OCC(=O)NCCN)=C(C)[C@@H]1C[C@H]3OC(=O)[C@H](OC(=O)C=C(C)C)[C@@H]24 [Compound 40] | moderate to good activities |

tested on: NOD/SCID mice; test: not given; settings: mouse, in vivo

| SMILES | mice survived (of 4 per group) |
| --- | --- |
| COC(=O)[C@@]12OC[C@]34[C@H]([C@@H](O)[C@@H]1O)[C@@]1(C)CC(=O)C(OC(=O)C[C@H](C)N)=C(C)[C@@H]1C[C@H]3OC(=O)[C@H](OC(=O)C=C(C)C)[C@@H]24 [UPB-26, 3-(3-β-HoAla)-brusatol] | four |
